Data taken from the supplement of paper PMC10307832.

Key:
Test in all cases: relative viability (nuclei count vs DMSO), 5 days (fraction); higher = more cells survive
201T = tested on: 201T
How it was run: (§1)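 Cells from lung cancer lines were seeded into 1536-well plates and, one day later, dosed by pin tool. Treatments were either a single drug or a fixed dose of an anchor drug with five library-drug doses (not always all listed) in √10 steps. After 5 days, nuclei were stained in a one-step fixation (final 0.05% Triton X-100, 1% formaldehyde, 1 ug/ml Hoechst) and counted on 4× images, and relative viability is the treated-to-vehicle nuclei ratio, as the median of duplicate plates.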

A-427 = tested on: A-427
How it was run: as §1

BEN = tested on: BEN
How it was run: as §1

COR-L23 = tested on: COR-L23
How it was run: as §1

EKVX = tested on: EKVX
How it was run: as §1

EMC-BAC-2 = tested on: EMC-BAC-2
How it was run: as §1

EPLC-272H = tested on: EPLC-272H
How it was run: as §1

HCC-827 = tested on: HCC-827
How it was run: as §1

LCLC-103H = tested on: LCLC-103H
How it was run: as §1

LK-2 = tested on: LK-2
How it was run: as §1

LXF-289 = tested on: LXF-289
How it was run: as §1

NCI-H1650 = tested on: NCI-H1650
How it was run: as §1

NCI-H1651 = tested on: NCI-H1651
How it was run: as §1

NCI-H1793 = tested on: NCI-H1793
How it was run: as §1

NCI-H1915 = tested on: NCI-H1915
How it was run: as §1

NCI-H2087 = tested on: NCI-H2087
How it was run: as §1

NCI-H2126 = tested on: NCI-H2126
How it was run: as §1

NCI-H2347 = tested on: NCI-H2347
How it was run: as §1

NCI-H358 = tested on: NCI-H358
How it was run: as §1

NCI-H460 = tested on: NCI-H460
How it was run: as §1

NCI-H596 = tested on: NCI-H596
How it was run: as §1

SW 1573 = tested on: SW 1573
How it was run: as §1

O=C(O)CCCCC(CCSCc1ccccc1)SCc1ccccc1 (stereo not drawn) [CPI-613] + COc1cc2c(Oc3ccc(NC(=O)C4(C(=O)Nc5ccc(F)cc5)CC4)cc3F)ccnc2cc1OCCCN1CCOCC1 [Foretinib] (partner 0.25 µM)
relative viability (201T; first compound 5 µM): 1.12 | relative viability (201T; first compound 15.81 µM): 1.03 | relative viability (201T; first compound 50 µM): 1.11 | relative viability (201T; first compound 158.11 µM): 0.329 | relative viability (201T; first compound 500 µM): 0.0557 | relative viability (A-427; first compound 5 µM): 1.14 | relative viability (A-427; first compound 15.81 µM): 1.11 | relative viability (A-427; first compound 50 µM): 0.86 | relative viability (A-427; first compound 158.11 µM): 0.526 | relative viability (A-427; first compound 500 µM): 0.131 | relative viability (BEN; first compound 5 µM): 0.728 | relative viability (BEN; first compound 15.81 µM): 0.443 | relative viability (BEN; first compound 50 µM): 0.602 | relative viability (BEN; first compound 158.11 µM): 0.499 | relative viability (BEN; first compound 500 µM): 0.508 | relative viability (COR-L23; first compound 5 µM): 0.983 | relative viability (COR-L23; first compound 15.81 µM): 0.995 | relative viability (COR-L23; first compound 50 µM): 0.714 | relative viability (COR-L23; first compound 158.11 µM): 0.614 | relative viability (COR-L23; first compound 500 µM): 0.0368 | relative viability (EKVX; first compound 5 µM): 0.83 | relative viability (EKVX; first compound 15.81 µM): 0.754 | relative viability (EKVX; first compound 50 µM): 0.983 | relative viability (EKVX; first compound 158.11 µM): 0.399 | relative viability (EKVX; first compound 500 µM): 0.531 | relative viability (EMC-BAC-2; first compound 5 µM): 1.01 | relative viability (EMC-BAC-2; first compound 15.81 µM): 0.993 | relative viability (EMC-BAC-2; first compound 50 µM): 0.967 | relative viability (EMC-BAC-2; first compound 158.11 µM): 0.367 | relative viability (EMC-BAC-2; first compound 500 µM): 0.0284 | relative viability (EPLC-272H; first compound 5 µM): 0.613 | relative viability (EPLC-272H; first compound 15.81 µM): 0.597 | relative viability (EPLC-272H; first compound 50 µM): 0.69 | relative viability (EPLC-272H; first compound 158.11 µM): 0.158 | relative viability (EPLC-272H; first compound 500 µM): 0.0081 | relative viability (HCC-827; first compound 5 µM): 1.04 | relative viability (HCC-827; first compound 15.81 µM): 1.02 | relative viability (HCC-827; first compound 50 µM): 1 | relative viability (HCC-827; first compound 158.11 µM): 0.416 | relative viability (HCC-827; first compound 500 µM): 0.312 | relative viability (LCLC-103H; first compound 5 µM): 0.744 | relative viability (LCLC-103H; first compound 15.81 µM): 0.757 | relative viability (LCLC-103H; first compound 50 µM): 0.805 | relative viability (LCLC-103H; first compound 158.11 µM): 0.174 | relative viability (LCLC-103H; first compound 500 µM): 0.243 | relative viability (LK-2; first compound 5 µM): 1.45 | relative viability (LK-2; first compound 15.81 µM): 1.18 | relative viability (LK-2; first compound 50 µM): 1.16 | relative viability (LK-2; first compound 158.11 µM): 1.06 | relative viability (LK-2; first compound 500 µM): 0.126 | relative viability (LXF-289; first compound 5 µM): 0.974 | relative viability (LXF-289; first compound 15.81 µM): 0.919 | relative viability (LXF-289; first compound 50 µM): 0.898 | relative viability (LXF-289; first compound 158.11 µM): 0.226 | relative viability (LXF-289; first compound 500 µM): 0.0507 | relative viability (NCI-H1650; first compound 5 µM): 1.35 | relative viability (NCI-H1650; first compound 15.81 µM): 0.905 | relative viability (NCI-H1650; first compound 50 µM): 1.16 | relative viability (NCI-H1650; first compound 158.11 µM): 0.0583 | relative viability (NCI-H1650; first compound 500 µM): 0.0222 | relative viability (NCI-H1651; first compound 5 µM): 0.794 | relative viability (NCI-H1651; first compound 15.81 µM): 0.838 | relative viability (NCI-H1651; first compound 50 µM): 0.974 | relative viability (NCI-H1651; first compound 158.11 µM): 0.295 | relative viability (NCI-H1651; first compound 500 µM): 0.088 | relative viability (NCI-H1793; first compound 5 µM): 0.608 | relative viability (NCI-H1793; first compound 15.81 µM): 0.618 | relative viability (NCI-H1793; first compound 50 µM): 0.827 | relative viability (NCI-H1793; first compound 158.11 µM): 0.385 | relative viability (NCI-H1793; first compound 500 µM): 0.0145 | relative viability (NCI-H1915; first compound 5 µM): 1.04 | relative viability (NCI-H1915; first compound 15.81 µM): 1.09 | relative viability (NCI-H1915; first compound 50 µM): 1.06 | relative viability (NCI-H1915; first compound 158.11 µM): 0.309 | relative viability (NCI-H1915; first compound 500 µM): 0.132 | relative viability (NCI-H2087; first compound 5 µM): 1.09 | relative viability (NCI-H2087; first compound 15.81 µM): 1.11 | relative viability (NCI-H2087; first compound 50 µM): 1.05 | relative viability (NCI-H2087; first compound 158.11 µM): 0.0825 | relative viability (NCI-H2087; first compound 500 µM): 0.0183 | relative viability (NCI-H2126; first compound 5 µM): 1.12 | relative viability (NCI-H2126; first compound 15.81 µM): 1.09 | relative viability (NCI-H2126; first compound 50 µM): 1.09 | relative viability (NCI-H2126; first compound 158.11 µM): 1.14 | relative viability (NCI-H2126; first compound 500 µM): 1.18 | relative viability (NCI-H2347; first compound 5 µM): 0.7 | relative viability (NCI-H2347; first compound 15.81 µM): 1.05 | relative viability (NCI-H2347; first compound 50 µM): 1.09 | relative viability (NCI-H2347; first compound 500 µM): 1.05 | relative viability (NCI-H358; first compound 15.81 µM): 0.648 | relative viability (NCI-H358; first compound 50 µM): 0.713 | relative viability (NCI-H358; first compound 158.11 µM): 0.369 | relative viability (NCI-H358; first compound 500 µM): 0.0356 | relative viability (NCI-H460; first compound 5 µM): 0.979 | relative viability (NCI-H460; first compound 15.81 µM): 0.978 | relative viability (NCI-H460; first compound 50 µM): 1.01 | relative viability (NCI-H460; first compound 158.11 µM): 0.479 | relative viability (NCI-H460; first compound 500 µM): 0.0276 | relative viability (NCI-H596; first compound 5 µM): 0.862 | relative viability (NCI-H596; first compound 15.81 µM): 0.969 | relative viability (NCI-H596; first compound 50 µM): 0.813 | relative viability (NCI-H596; first compound 158.11 µM): 0.592 | relative viability (NCI-H596; first compound 500 µM): 0.0375 | relative viability (SW 1573; first compound 5 µM): 0.943 | relative viability (SW 1573; first compound 15.81 µM): 0.807 | relative viability (SW 1573; first compound 50 µM): 0.844 | relative viability (SW 1573; first compound 158.11 µM): 0.88 | relative viability (SW 1573; first compound 500 µM): 0.871
